Assay results: the NIST ThermoML archive (doi:10.1021/acs.jced.8b01048)
± gives the expanded uncertainty stated by the source.

Experiments:
[1] = 100 kPa, Liquid, Vibrating tube method
[2] = xn = mol fraction of the nth substance listed; details: 100 kPa, Liquid, Vibrating tube method

CC(=O)[O-].CCn1cc[n+](C)c1 [1-ethyl-3-methylimidazolium acetate]
[1]
Details	mass density [kg/m3]
293.15 K	1101.7 ± 0.5
303.15 K	1095.6 ± 0.5
313.15 K	1089.6 ± 0.5
323.15 K	1083.7 ± 0.5
333.15 K	1077.7 ± 0.5
343.15 K	1071.8 ± 0.5
353.15 K	1065.9 ± 0.5
363.15 K	1060 ± 0.5
373.15 K	1054.2 ± 0.5

CC(=O)[O-].CCn1cc[n+](C)c1 [1-ethyl-3-methylimidazolium acetate] + O
[2], x2 = 0.018
Details	mass density [kg/m3]
293.15 K	1101.7 ± 0.5
303.15 K	1095.6 ± 0.5
313.15 K	1089.6 ± 0.5
323.15 K	1083.7 ± 0.5
333.15 K	1077.7 ± 0.5
343.15 K	1071.8 ± 0.5
353.15 K	1065.9 ± 0.5
363.15 K	1060 ± 0.5
373.15 K	1054.2 ± 0.5

CC(=O)[O-].C[N+](C)(C)CCO [choline acetate] + C[S+](C)[O-]
mass density [kg/m3], [2]
Details	293.15 K	303.15 K	313.15 K	323.15 K	333.15 K	343.15 K	353.15 K	363.15 K	373.15 K
x2 = 0.503	–	–	–	–	–	1067.3 ± 0.5	1060.8 ± 0.5	1054.6 ± 0.5	1048.4 ± 0.5
x2 = 0.598	–	–	–	–	1073.6 ± 0.5	1066.7 ± 0.5	1059.8 ± 0.5	1053 ± 0.5	1046.4 ± 0.5
x2 = 0.701	–	–	–	1079.6 ± 0.5	1072.3 ± 0.5	1065 ± 0.5	1057.6 ± 0.5	1050.4 ± 0.5	1043.3 ± 0.5
x2 = 0.799	–	–	1086 ± 0.5	1077.9 ± 0.5	1070 ± 0.5	1061.8 ± 0.5	1053.8 ± 0.5	1045.6 ± 0.5	1037.6 ± 0.5
x2 = 0.899	1102.7 ± 0.5	1093.9 ± 0.5	1085.1 ± 0.5	1076.3 ± 0.5	1067.4 ± 0.5	1058.6 ± 0.5	1049.8 ± 0.5	1040.9 ± 0.5	1032.3 ± 0.5

C[S+](C)[O-] [dimethyl sulfoxide]
[1]
Details	mass density [kg/m3]
293.15 K	1100.2 ± 1.1
303.15 K	1090.2 ± 1.1
313.15 K	1080.4 ± 1
323.15 K	1070.2 ± 1
333.15 K	1060.3 ± 1
343.15 K	1050.2 ± 1
353.15 K	1040.2 ± 1
363.15 K	1029.9 ± 1
373.15 K	1019.8 ± 0.9

C[S+](C)[O-] [dimethyl sulfoxide] + CC(=O)[O-].CCn1cc[n+](C)c1
[2], x1 = 1
Details	mass density [kg/m3]
293.15 K	1100.2 ± 0.5
303.15 K	1090.2 ± 0.5
313.15 K	1080.4 ± 0.5
323.15 K	1070.2 ± 0.5
333.15 K	1060.3 ± 0.5
343.15 K	1050.2 ± 0.5
353.15 K	1040.2 ± 0.5
363.15 K	1029.9 ± 0.5
373.15 K	1019.8 ± 0.5

C[S+](C)[O-] [dimethyl sulfoxide] + O
[2], x1 = 0.998
Details	mass density [kg/m3]
293.15 K	1100.2 ± 1.1
303.15 K	1090.2 ± 1.1
313.15 K	1080.4 ± 1
323.15 K	1070.2 ± 1
333.15 K	1060.3 ± 1
343.15 K	1050.2 ± 1
353.15 K	1040.2 ± 1
363.15 K	1029.9 ± 1
373.15 K	1019.8 ± 0.9
